Assay results published in patent US20220362275A1, “Method and Compositions for Treating Glioblastoma” (PHOENIX BIOTECHNOLOGY, INC., priority 2019, published 2022).
Entries after “also recorded” stand apart in the source; their conditions may differ. Read-outs that look alike come from different tables or passages of the source.

Key:
GBM9 stem cell line = assay: High throughput growth/viability assay (Cell Titer Glo-3D), GBM9; assay type: cell-based; details: FIG. 17E
Procedure: (§1) A total of 500 GBM9 cells or 1,000 GS28 cells per well suspended in 50 ul of media are seeded into Greiner Black 384-well plates (Cat #781091) using Multidrop Combi liquid dispenser (ThermoFisher).
(§2) The cells are allowed to recover and form a monolayer overnight at 37 C in a humidified chamber with 5% CO2.
(§3) After recovery, 50 nl of each drug are transferred into well using an Echo 550 acoustic dispensing platform (Labcyte).
(§4) In the combination screen, two or three drugs are tested with a fixed volume of DMSO ([…]) and two biological replicates. Each assay plate contains a fixed concentration of drug in addition to a negative control (0.1% DMSO), a positive control (10 uM Doxorubicin), and an 8-point dose response curve of the positive controls. Each well image is taken using the ImageXpress Micro Conforcal High Content Imaging System (MolecularDevices) everyday four times.
(§5) After 72 hr incubation in the presence of drug, plates are aspirated for left 25 ul and then, 25 ul of Cell Titer Glo-3D (Promega) are added and incubated for 20 minutes. Assay plates are read on the Synergy Neo2 Hybrid Multi-Mode Microplate Reader (BioTek).

GS28 stem cell line = assay: High throughput growth/viability assay (Cell Titer Glo-3D), GS28; assay type: cell-based; details: FIG. 17D
Procedure: as §1, §2, §3, §4, §5

GBM [1] = details: addition to standard treatment; cited from earlier work
[2] = test system: caspase 3, 8 and 9 in human GBM U87MG, U251 and T98 cells; assay: Caspase 3, 8 and 9 enzymatic activity (chromogenic substrates); assay type: cell-based; details: pan-caspase inhibitor added
Procedure: For cell cycle analysis, cells (2.5×10^6) grown in 100-mm dishes were treated with PBI-05204 (0.5-2.5 μg/ml) for 24 hr. Cells were subjected to trypsinization and centrifugation, and the pellets were suspended and washed in 1× phosphate-buffered saline solution (PBS) and were fixed overnight in 70% ethanol at 4° C. The cells were then washed with 1×PBS and were suspended in PBTB staining solution containing PBS, 0.5% bovine serum albumin (BSA), 0.005% Tween-20, propidium iodide (10 μg/ml) and DNase-free RNase (1 μg/ml). Cells were incubated in the dark for 30 min at 37° C. before fluorescence-activated cell-sorting (FACS) analysis using a BD FACS Caliber flow cytometer (BD Biosciences, San Jose, Calif.). The percentage of cells in each phase of the cell cycle was estimated from the DNA histogram content. Apoptosis was evaluated by APOSTRAND™ ELISA apoptosis detection kit (3V Chimica S.r.l. Rome, Italy) and by caspase-specific chromogenic substrates at 450 nm in an ELISA plate reader such as Ac-DEVD-pNA (caspase-3), Ac-IETD-pNA (caspase 8) and Ac-LEHD-pNA (caspase 9) purchased from Kaneka Eurogentec SA (Seraing, Belgium).

[3] = Oral bioavailability anticipated from human clinical data; details: in vivo, based on human clinical data, read-out: part of an administered dose orally bioavailable
GBM [4] = details: cited from earlier work
[5] = cited from earlier work
[6] = all concentrations ranging from 1×10^−4.5 to 1×10^−7 M

Question: With CC1(C)CC[C@]2(C(=O)O)CC[C@]3(C)C(=CC[C@@H]4[C@@]5(C)CC[C@H](O)C(C)(C)[C@@H]5CC[C@]43C)[C@@H]2C1 [oleanolic acid] as the compound, how does the “activity (inhibition of growth of GBM stem cells)” value (GBM9 stem cell line; [6]) read?
Answer: The value was “very poor activity; also recorded: little to no activity”.

Question: What about the “activity (inhibition of growth of GBM stem cells)” value (GS28 stem cell line; [6]) of the same compound?
Answer: Its value is “very poor activity”.

Question: With bevacizumab as the compound, how does the “overall survival (OS)” value (GBM [1]) read?
Answer: The value was “no increase”.

Question: What about the “progression-free survival (PFS)” value (GBM [1]) of the same compound?
Answer: The value was “improved”.

Question: With z-VAD-fmk as the compound, how does the “PBI-05204 induced caspase 3 activity” value [2] read?
Answer: Its value is “largely inhibited”.

Question: For CO[C@H]1C[C@H](O[C@H]2CC[C@@]3(C)[C@H](CC[C@@H]4[C@@H]3CC[C@]3(C)[C@@H](C5=CC(=O)OC5)[C@@H](OC(C)=O)C[C@]43O)C2)O[C@@H](C)[C@@H]1O [oleandrin], which bioavailability [3] is on record?
Answer: Its bioavailability is 50 to 75%.

Question: What does the source list for Cn1nnc2c(C(N)=O)ncn2c1=O [TMZ, temozolomide]?
Answer: grade ≥3 toxicity (GBM [4]; ddTMZ arm): 53%; grade ≥3 toxicity (GBM [4]; sdTMZ arm): 34%; entry into the cerebrospinal fluid ([5]; in vivo): readily enters; pharmacokinetics ([5]; in vivo): linear; bioavailability ([5]; oral): excellent

Question: What does the source list for C[C@H]1[C@H](C)CC[C@]2(C(=O)O)CC[C@]3(C)C(=CC[C@@H]4[C@@]5(C)CC[C@H](O)C(C)(C)[C@@H]5CC[C@]43C)[C@H]12 [Ursolic acid, ursolic acid]?
Answer: activity at concentrations below about 10 microM (GBM9 stem cell line): little to no activity; activity at concentrations below about 5.6 microM (GS28 stem cell line): little to no activity
